Experimental data published in EP1862466A2, “Arrays with cleavable linkers” (THE SCRIPPS RESEARCH INSTITUTE, priority 2004, dated 2006).

Assays:
[1] = system: β3GlcNAcT; test: β3GlcNAcT acceptor specificity (relative enzyme activity); format: biochemical, N. meningitidis; settings: substance used as acceptor substrate; Galβ(1-4)Glc = 100
Excerpt: The inventors have previously cloned and characterized the bacterial N. meningitidis enzymes β4GalT-GalE and β3GlcNAcT. Blixt, O.;Brown, J.;Schur, M.;Wakarchuk, W. and Paulson, J. C., J. Org. Chem. 2001, 66, 2442-2448; Blixt, O.;van Die, I.;Norberg, T. and van den Eijnden, D. H., Glycobiol. 1999, 9, 1061-1071. β4GalT-GalE is a fusion protein constructed from β4GalT and the uridine-5'-diphospho-galactose-4'-epimerase (GalE) for in situ conversion of inexpensive UDP-glucose to UDP-galactose providing a cost efficient strategy.
Both enzymes, β4GalT-GalE and β3GlcNAcT, were over expressed in E. coli AD202 in a large-scale fermentor (100 L). Bacteria were cultured in 2YT medium and induced with iso-propyl-thiogalactopyranoside (IPTG) to ultimately produce 8-10 g of bacterial cell paste / L cell media. The enzymes were then released from the cells by a microfluidizer and were solubilized in Tris buffer (25 mM, pH 7.5) containing manganese chloride (10 mM) and Triton X (0.25%) to reach enzymatic activities of about 50 U/L and 115 U/L of cell culture β4GalT-GalE and β3GlcNAcT, respectively.
The structures of these disaccharides are provided below. [drawing 23] [drawing 24] [drawing 25] [drawing 26]
Adding the hydrophobic para-nitrophenyl ring as an aglycon to the reducing end of the acceptors enhanced the activity of the enzyme up to 10 fold (compare 4 with 5 and 6 with 7). The increase in the enzyme activity by adding a hydrophobic aglycon to the acceptor sugar, though to the lesser extent, has also been shown for β4GalT (compare 12 with 13,14). The relaxed substrate specificity of these enzymes makes them very useful for preparative synthesis of various carbohydrate structures, including poly-N-acetyllactosamines. Table 4. Selected β4GalT-GalE and β3GlcNAcT Specificity Data

[2] = molecular target: 2G12 antibody; test: Carbohydrate microarray analysis, microtiter-based, Scatchard plot (Kd); format: binding, human; settings: for Kd: oligomannose immobilized as azide derivative on cleavable linker in microtiter plate, fluorescent secondary antibody
Method: Carbohydrate microarray analysis. Ninety-six well NHS-coated microtiter plates (NoAb Biodiscoveries) were treated with 200 µL of a 1 mM methanolic solution of the amino-functionalized disulfide and alkyne containing linker (scheme V) containing 5 % diisopropylethylamine (DIEA) and incubated overnight at 4°C. The microtiter plate was then washed with 2 x 200 µL methanol and 2 x 200 µL water. Next, 200 µL solutions of azido-functionalized oligomannose derivatives 21-25 at varying concentrations from 0 to 500 µM in 5 % DIEA / methanol were introduced. A sprinkle of copper (I) iodide was added and the contents were allowed to react overnight at 4°C. The next day, the contents were removed and the plates were washed with 2 x 200 µL methanol and 2 x 200 µL water. The plates were then blocked with 0.1 % Tween20 solution in HEPES buffer pH 7.5 at 4 °C for 1 hour and then washed with 3 x 200 µL HEPES buffer. Next, 200 µL of a 1 µg/mL solution of 2G12 antibody in 0.1 % Tween20 / PBS buffer was added to the wells for a 1 hour incubation at 4 °C and then washed with 2 x 200 µL PBS buffer. At this point, 200 µL of FITC-tagged goat anti-human IgG antibody (10 µg/mL in PBS, Cal Biochem) was added for 1 hour at 4 °C, and the wells were then washed with 2 x 200 µL PBS buffer. Detection of the FITC-tagged secondary antibody was performed in 200 µL water using a fluorescence plate reader. The resulting data yielded the oligomannose-2G12 binding isotherms and Scatchard plot analysis was implemented in the determination of dissociation constants. Adams et al. (2004) Chem. Biol. 11: 875-81.
Overall, many of the oligomannose derivatives can compete for binding of Man9GlcNAc2, and, therefore, may serve as building blocks for potential immunogens to elicit 2G12-like antibodies. Carbohydrate Microarray Analysis. Previous studies by the inventors using covalent microtiter plates with a panel of carbohydrate epitopes for interaction with 2G12 involved converting the amine-containing oligomannoses 4, 5, 7, 8 and 9 to the corresponding azide derivatives 21, 22, 23, 24 and 25. These derivatives were then covalently attached to a microplate-immobilized cleavable linker via the Cu (I)-catalyzed 1,3-dipolar cycloaddition reaction (FIG. 11B). Kd values for the interaction of 2G12 with oligomannoses 4, 5, 7, 8, 9 (Table 9) were determined using a microtiter-based assay with detection via a fluorescent secondary antibody (see Bryan et al.(2004) J. Am. Chem. Soc. 126, 8640-41). Table 9: The Kd values of oligomannoses 1 and 4, 5, 7, 8, 9 binding to 2G12, as determined by carbohydrate microarray analysis.

[3] = system: 2G12 anti-HIV antibody; test: 2G12 binding to glycan array printed on glass slide; design: species or system human; settings: for Rel. spec. (relative binding activity of 2G12): glass-slide glycan array, 2G12 pre-complexed with secondary anti-IgG-FITC; for binding of 2G12 antibodies (in words): glycan array, initial experiments
Method: Construction of a glycan array printed on a glass slide: The library of carbohydrate structures was obtained through chemical and chemo-enzymatic synthesis as described above, as well as natural sources. This compound library contained a N-hydroxy succinimide (NHS)-reactive primary amino group, which was printed on a commercial NHS-activated glass surface (Accelr8 Technology Corporation, Denver, CO) using a microarray gene printer (TSRI).
Each glycan type was printed (≈0.5nL/spot) at various concentrations (10-100 µM) and each concentration in a replicate of six. Slides were further incubated with ethanolamine buffer to deactivate remaining NHS functional groups.
The 2G12 antibody was pre-complexed (for 10 min) with secondary human anti-IgG-FITC (2:1, 20µg/mL) prior to application to the glycan array. After incubation with the 2G12 antibodies, the array was washed by dipping the slide in buffer and water.

[4] = molecular target: 2G12 antibody; test: 2G12 binding study on cleavable linker glycan array in microtiter plates (Kd); design: species or system human; settings: binding to 2G12 antibody
Method: Cleavable Linker Glycan Array in Microtiter Plates: Further experiments were performed using glycans immobilized within microtiter wells with the cleavable triazole linkers described in Example 7 as shown in FIG. 11.
2G12 Binding: After washing with QH2O, wells were blocked with 10 mM HEPES buffer, pH 7.5/150 mM NaCl buffer (200 µL) containing 0.1% Tween-20 over 1 h at 4 °C. The buffer was then removed and 2G12 (17 µg/mL PBS buffer; 200 µL) was incubated in the well over 1 h at 4°C. Wells were then washed with PBS buffer (3×; 200 µL) and fluorescein-conjugated Goat Anti-Human IgG antibody (14 µg/mL PBS buffer; 200 µL) was incubated in the well over 1 h in the dark at 4 °C. Wells were then washed with PBS buffer (3×; 200 µL) and fluorescence was measured with an excitation wavelength of 485 nm and emission wavelength of 535 nm.
Further studies were performed using a cleavable linker array to clarify the types of mannose-containing glycans bound by the 2G12 anti-HIV antibodies. […] The results of a binding study using increasing amounts of labeled Manα1,2Manα1,3Manα1,2 Manα1,6Man glycan with a constant amount of 2G12 antibody are shown in FIG. 16.

**Q.** For `OC[C@H]1O[C@@H](O[C@H]2[C@H](O)[C@@H](O)[C@H](O)O[C@@H]2CO)[C@H](O)[C@@H](O)[C@H]1O` [Acceptor 4, Galβ(1-4)Glc, reference compound], which “Relative enzyme activity (%) β(1-3)GlcNAcT-activity” value [1] is on record?
**A.** 100%

**Q.** With `OCC1O[C@@H](O)C(O)[C@@H](O)[C@@H]1O[C@@H]1OC(CO)[C@H](O)[C@H](O)C1O` (stereo partly shown) [Compound 4] as the molecule, how does the “Relative enzyme activity (%) β(1-3)GlcNAcT-activity” value [1] read?
**A.** 100%

**Q.** What about the Kd [2] of the same molecule?
**A.** 100 nM

**Q.** Which “Relative enzyme activity (%) β(1-3)GlcNAcT-activity” value [1] does the source give for `O=[N+]([O-])c1ccc(O[C@@H]2OC(CO)[C@@H](O[C@@H]3OC(CO)[C@H](O)[C@H](O)C3O)[C@H](O)C2O)cc1` (stereo partly shown) [Compound 5] here?
**A.** 945%

**Q.** And the Kd [2]?
**A.** 100 nM

**Q.** With `CC(=O)N[C@H]1C(O)O[C@H](CO)[C@@H](O[C@@H]2O[C@H](CO)[C@H](O)[C@H](O)[C@H]2O)[C@@H]1O` (stereo partly shown) [Compound 6] as the molecule, how does the “Relative enzyme activity (%) β(1-3)GlcNAcT-activity” value [1] read?
**A.** 7%

**Q.** Which “Rel. spec. (relative binding activity of 2G12)” value [3] does the source give for `NCCCO[C@H]1O[C@H](CO)[C@@H](O)[C@H](O[C@H]2O[C@H](CO)[C@@H](O)[C@H](O)[C@@H]2O[C@H]2O[C@H](CO)[C@@H](O)[C@H](O)[C@@H]2O[C@H]2O[C@H](CO)[C@@H](O)[C@H](O)[C@@H]2O)[C@@H]1O` [Glycan 135] here?
**A.** +++ (+++ >25,000)

**Q.** How did the “Rel. spec. (relative binding activity of 2G12)” value [3] turn out when `NCCCO[C@H]1O[C@H](CO[C@H]2O[C@H](CO)[C@@H](O)[C@H](O)[C@@H]2O[C@H]2O[C@H](CO)[C@@H](O)[C@H](O)[C@@H]2O)[C@@H](O)[C@H](O[C@H]2O[C@H](CO)[C@@H](O)[C@H](O)[C@@H]2O[C@H]2O[C@H](CO)[C@@H](O)[C@H](O)[C@@H]2O)[C@@H]1O` [Glycan 136] was run?
**A.** +++ (+++ >25,000)

**Q.** How did the “Rel. spec. (relative binding activity of 2G12)” value [3] turn out when `NCCCO[C@H]1O[C@H](CO[C@H]2O[C@H](CO)[C@@H](O)[C@H](O)[C@@H]2O[C@H]2O[C@H](CO)[C@@H](O)[C@H](O)[C@@H]2O[C@H]2O[C@H](CO)[C@@H](O)[C@H](O)[C@@H]2O)[C@@H](O)[C@H](O[C@H]2O[C@H](CO)[C@@H](O)[C@H](O)[C@@H]2O)[C@@H]1O` [Glycan 138] was run?
**A.** +++ (+++ >25,000)

**Q.** For `NCCCCCO[C@H]1O[C@H](CO)[C@@H](O)[C@H](O[C@H]2O[C@H](CO)[C@@H](O)[C@H](O)[C@@H]2O[C@H]2O[C@H](CO)[C@@H](O)[C@H](O)[C@@H]2O[C@H]2O[C@H](CO)[C@@H](O)[C@H](O)[C@@H]2O)[C@@H]1O` [Oligomannose 4], which “affinity for 2G12 antibodies (in words)” value ([2]; microtiter plate array) is on record?
**A.** greatest affinity

**Q.** With “Galβ(1-4)GlcNAc [Acceptor 6, reference compound]” as the molecule, how does the “Relative enzyme activity (%) β(1-3)GlcNAcT-activity” value [1] read?
**A.** 7-8%

**Q.** For Man-8#aa Man8-aminoacid [Glycan 144], which “binding of 2G12 antibodies (in words)” value [3] is on record?
**A.** Binding was observed

**Q.** Man-9#aa Man9-aminoacid [Glycan 145] was tested. Which “binding of 2G12 antibodies (in words)” value [3] did it give?
**A.** smaller level of binding

**Q.** “Manα1,2Manα1,2Manα1,3(Manα1,2Man1,2Man1.6)Man” was tested. Which Kd [4] did it give?
**A.** 700 nM

**Q.** Manα1,2Manα1,3Manα1,2 Manα1,6Man was tested. Which Kd [4] did it give?
**A.** 100 nM

**Q.** “Manα 1,2Manα1 ,2Manα1 1,3(Manα1,2Man1,3 (Manα1.2Manα1 ,2Manα 1.6) )Man” was tested. Which Kd [4] did it give?
**A.** 1000 nM
